Measured values published in ChEMBL document CHEMBL5131445, “Optimization of a novel piperazinone series as potent selective peripheral covalent BTK inhibitors” (Bioorg Med Chem Lett, 2022).
In brackets after ≈: the same amount, converted by molar mass.

Assays:
[1] = system: MDR1; test: Permeability across apical to basolateral side in dog MDCK-MDR1 cells; type: ADME, cell-based, Canis lupus familiaris; settings: read-out: permeability
[2] = biological target: Cytochrome P450 3A4 (Homo sapiens, UniProt P08684); test: Inhibition of human CYP3A4; type: ADME
[3] = biological target: Tyrosine-protein kinase BTK (Homo sapiens, UniProt Q06187); test: Inhibition of BTK (unknown origin)
[4] = biological target: T1, Cytochrome P450 1A2 (Homo sapiens, UniProt P05177); test: Inhibition of human CYP1A2; type: ADME
T1 sequence (P05177 whole entry): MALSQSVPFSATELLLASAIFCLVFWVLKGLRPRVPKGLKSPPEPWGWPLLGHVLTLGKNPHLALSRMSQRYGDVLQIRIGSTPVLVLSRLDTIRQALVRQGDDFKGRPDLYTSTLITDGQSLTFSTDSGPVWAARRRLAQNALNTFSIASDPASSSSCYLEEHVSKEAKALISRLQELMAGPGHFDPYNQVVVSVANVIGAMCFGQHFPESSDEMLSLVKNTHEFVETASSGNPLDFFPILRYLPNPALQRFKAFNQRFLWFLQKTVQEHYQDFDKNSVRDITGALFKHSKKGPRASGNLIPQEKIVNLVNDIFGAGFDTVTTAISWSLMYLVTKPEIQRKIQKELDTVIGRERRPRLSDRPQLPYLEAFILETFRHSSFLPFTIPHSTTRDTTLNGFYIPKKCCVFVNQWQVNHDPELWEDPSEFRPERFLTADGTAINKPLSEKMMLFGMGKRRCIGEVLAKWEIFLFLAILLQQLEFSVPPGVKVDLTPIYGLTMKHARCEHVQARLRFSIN

[5] = Plasma protein binding in rat assessed as unbound fraction by rapid equilibrium dialysis method; type: ADME, cell-free
[6] = Metabolic stability in human liver microsomes assessed as intrinsic clearance; type: ADME, Microsome; settings: read-out: CLH
[7] = biological target: Cytochrome P450 2C9 (Homo sapiens, UniProt P11712); test: Inhibition of human CYP2C9; type: ADME
[8] = Kinetic aqueous solubility of the compound at pH 6.8 by shake flask assay; type: physicochemical; settings: read-out: Kinetic_solubility
[9] = biological target: Cytochrome P450 2D6 (Homo sapiens, UniProt P10635); test: Inhibition of human CYP2D6; type: ADME
[10] = Plasma protein binding in human assessed as unbound fraction by rapid equilibrium dialysis method; type: ADME, cell-free
[11] = biological target: T2, Cytochrome P450 2C8 (Homo sapiens, UniProt P10632); test: Inhibition of human CYP2C8; type: ADME
T2 sequence (P10632 whole entry): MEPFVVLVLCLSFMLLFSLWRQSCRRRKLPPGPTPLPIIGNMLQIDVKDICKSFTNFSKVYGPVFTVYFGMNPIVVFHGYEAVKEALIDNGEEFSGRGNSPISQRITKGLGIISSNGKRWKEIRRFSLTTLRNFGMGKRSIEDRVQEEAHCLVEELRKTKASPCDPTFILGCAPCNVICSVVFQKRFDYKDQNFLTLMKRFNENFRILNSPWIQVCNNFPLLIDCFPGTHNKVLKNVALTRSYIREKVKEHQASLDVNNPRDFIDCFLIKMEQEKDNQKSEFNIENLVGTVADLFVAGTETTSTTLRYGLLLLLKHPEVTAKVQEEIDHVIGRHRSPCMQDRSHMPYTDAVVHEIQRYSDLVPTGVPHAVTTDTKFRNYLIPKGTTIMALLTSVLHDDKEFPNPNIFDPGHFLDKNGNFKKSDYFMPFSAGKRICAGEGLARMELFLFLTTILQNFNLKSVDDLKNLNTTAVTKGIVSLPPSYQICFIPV

[12] = biological target: T3, Tyrosine-protein kinase Tec (Homo sapiens, UniProt P42680); test: Binding affinity to TEC (unknown origin) assessed as dissociation constant by KINOMEscan analysis
T3 sequence (P42680 whole entry): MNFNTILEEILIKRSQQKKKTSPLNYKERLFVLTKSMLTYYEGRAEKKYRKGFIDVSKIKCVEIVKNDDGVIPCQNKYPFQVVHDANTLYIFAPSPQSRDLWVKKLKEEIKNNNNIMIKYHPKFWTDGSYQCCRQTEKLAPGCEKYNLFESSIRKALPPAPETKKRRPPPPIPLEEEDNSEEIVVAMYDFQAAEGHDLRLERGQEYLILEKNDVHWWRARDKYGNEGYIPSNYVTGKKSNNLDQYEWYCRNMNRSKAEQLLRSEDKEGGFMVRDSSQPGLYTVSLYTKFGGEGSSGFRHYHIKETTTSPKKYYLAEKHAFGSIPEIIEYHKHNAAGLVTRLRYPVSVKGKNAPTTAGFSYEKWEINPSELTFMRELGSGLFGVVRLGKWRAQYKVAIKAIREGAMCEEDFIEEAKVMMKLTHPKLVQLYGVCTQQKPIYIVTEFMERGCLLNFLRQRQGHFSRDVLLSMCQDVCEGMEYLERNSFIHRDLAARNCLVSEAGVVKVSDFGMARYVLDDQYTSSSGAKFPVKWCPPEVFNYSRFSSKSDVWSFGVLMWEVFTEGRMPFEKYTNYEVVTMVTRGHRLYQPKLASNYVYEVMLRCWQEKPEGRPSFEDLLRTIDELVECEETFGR

[13] = biological target: T4, Tyrosine-protein kinase TXK (Homo sapiens, UniProt P42681); test: Binding affinity to TXK (unknown origin) assessed as dissociation constant by KINOMEscan analysis
T4 sequence (P42681 whole entry): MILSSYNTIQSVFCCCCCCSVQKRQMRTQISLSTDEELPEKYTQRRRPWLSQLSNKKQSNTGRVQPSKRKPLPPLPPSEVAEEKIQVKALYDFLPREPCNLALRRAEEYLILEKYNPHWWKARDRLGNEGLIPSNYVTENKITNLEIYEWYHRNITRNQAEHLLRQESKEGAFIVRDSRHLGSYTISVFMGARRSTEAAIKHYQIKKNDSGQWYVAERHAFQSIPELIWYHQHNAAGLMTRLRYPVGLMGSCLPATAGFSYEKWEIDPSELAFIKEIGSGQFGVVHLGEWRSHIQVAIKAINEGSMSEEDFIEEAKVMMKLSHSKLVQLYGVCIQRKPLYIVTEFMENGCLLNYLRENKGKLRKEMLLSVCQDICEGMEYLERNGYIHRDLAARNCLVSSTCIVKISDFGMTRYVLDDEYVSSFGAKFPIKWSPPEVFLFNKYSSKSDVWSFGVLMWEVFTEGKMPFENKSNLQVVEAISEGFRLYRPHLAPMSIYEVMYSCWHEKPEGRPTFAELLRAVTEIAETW

[14] = Kinetic aqueous solubility of the compound at pH 1.5 by shake flask assay; type: physicochemical; settings: read-out: Kinetic_solubility

Sequence of Cytochrome P450 3A4 (P08684 whole entry): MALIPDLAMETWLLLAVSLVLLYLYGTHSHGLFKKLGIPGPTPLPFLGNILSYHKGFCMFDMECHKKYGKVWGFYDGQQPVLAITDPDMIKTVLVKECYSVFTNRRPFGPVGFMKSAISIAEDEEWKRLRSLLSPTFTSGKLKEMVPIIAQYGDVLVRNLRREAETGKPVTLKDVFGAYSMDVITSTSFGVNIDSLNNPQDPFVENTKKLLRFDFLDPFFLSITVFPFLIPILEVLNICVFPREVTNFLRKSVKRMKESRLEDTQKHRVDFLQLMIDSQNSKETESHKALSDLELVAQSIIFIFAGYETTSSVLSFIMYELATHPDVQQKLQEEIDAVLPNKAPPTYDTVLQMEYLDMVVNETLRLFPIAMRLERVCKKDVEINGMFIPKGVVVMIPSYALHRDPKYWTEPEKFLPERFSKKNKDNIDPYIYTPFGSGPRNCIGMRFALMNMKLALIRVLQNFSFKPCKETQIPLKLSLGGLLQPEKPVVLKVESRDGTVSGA
Sequence of Tyrosine-protein kinase BTK (Q06187 whole entry): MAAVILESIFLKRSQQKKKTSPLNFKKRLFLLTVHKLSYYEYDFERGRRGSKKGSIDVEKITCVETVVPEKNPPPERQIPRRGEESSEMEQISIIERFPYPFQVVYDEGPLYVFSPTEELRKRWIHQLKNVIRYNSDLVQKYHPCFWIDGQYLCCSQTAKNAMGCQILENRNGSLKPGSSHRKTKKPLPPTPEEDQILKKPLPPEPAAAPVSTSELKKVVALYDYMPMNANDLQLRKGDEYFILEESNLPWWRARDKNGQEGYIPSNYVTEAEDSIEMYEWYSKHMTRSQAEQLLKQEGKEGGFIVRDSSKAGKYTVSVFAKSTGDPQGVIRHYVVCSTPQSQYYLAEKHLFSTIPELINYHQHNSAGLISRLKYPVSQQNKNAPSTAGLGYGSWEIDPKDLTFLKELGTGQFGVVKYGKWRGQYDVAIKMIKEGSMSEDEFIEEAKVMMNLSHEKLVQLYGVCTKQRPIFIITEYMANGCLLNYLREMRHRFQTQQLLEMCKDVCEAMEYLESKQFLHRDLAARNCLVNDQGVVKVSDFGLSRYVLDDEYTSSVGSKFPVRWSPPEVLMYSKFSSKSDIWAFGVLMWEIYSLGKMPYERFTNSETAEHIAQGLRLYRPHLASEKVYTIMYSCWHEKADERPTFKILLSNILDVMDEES
Sequence of Cytochrome P450 2D6 (P10635 whole entry): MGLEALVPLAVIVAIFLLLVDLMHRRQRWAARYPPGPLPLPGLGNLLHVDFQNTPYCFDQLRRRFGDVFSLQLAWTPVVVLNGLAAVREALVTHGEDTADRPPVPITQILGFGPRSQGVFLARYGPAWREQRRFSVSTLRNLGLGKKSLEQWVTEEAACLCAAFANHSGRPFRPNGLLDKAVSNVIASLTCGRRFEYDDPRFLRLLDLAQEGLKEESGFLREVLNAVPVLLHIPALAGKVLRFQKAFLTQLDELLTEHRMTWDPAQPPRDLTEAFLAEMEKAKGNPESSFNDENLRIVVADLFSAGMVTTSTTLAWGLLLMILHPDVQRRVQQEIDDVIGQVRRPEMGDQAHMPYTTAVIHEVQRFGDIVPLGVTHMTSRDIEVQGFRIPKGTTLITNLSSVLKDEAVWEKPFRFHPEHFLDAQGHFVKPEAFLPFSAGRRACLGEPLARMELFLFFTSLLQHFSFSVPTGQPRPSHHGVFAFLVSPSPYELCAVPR
Sequence of Cytochrome P450 2C9 (P11712 whole entry): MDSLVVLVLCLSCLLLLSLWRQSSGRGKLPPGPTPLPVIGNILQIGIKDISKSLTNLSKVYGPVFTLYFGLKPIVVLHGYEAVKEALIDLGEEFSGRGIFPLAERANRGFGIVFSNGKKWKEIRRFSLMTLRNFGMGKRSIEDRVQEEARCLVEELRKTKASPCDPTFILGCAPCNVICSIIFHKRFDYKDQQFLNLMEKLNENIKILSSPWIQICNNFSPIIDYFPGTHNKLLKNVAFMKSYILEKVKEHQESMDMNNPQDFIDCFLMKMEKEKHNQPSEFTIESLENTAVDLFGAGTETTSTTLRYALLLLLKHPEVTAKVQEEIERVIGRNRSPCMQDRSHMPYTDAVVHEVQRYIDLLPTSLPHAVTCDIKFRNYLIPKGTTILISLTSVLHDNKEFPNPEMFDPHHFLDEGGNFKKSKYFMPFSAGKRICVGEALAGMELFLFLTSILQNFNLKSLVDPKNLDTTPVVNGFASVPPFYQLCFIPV

Structure (SMILES): C=CC(=O)N(C)CCOc1c(N)ncnc1-c1ccc(CN2CCN(CC(C)C)CC2=O)c(C)c1
- Papp A→B [1]: 0.32 ×10⁻⁶ cm/s
- IC50 [2]: > 10 µM
- IC50 [3]: 0.00022 µM
- IC50 [4]: > 10 µM
- fraction unbound [5]: 0.169
- CLint scaled [6]: 66 mL/min/kg
- IC50 [7]: > 10 µM
- solubility kinetic [8]: 49 µg/mL (≈ 102 µM)
- IC50 [9]: > 10 µM
- fraction unbound [10]: 0.227
- IC50 [11]: > 10 µM
- Kd [12]: 0.24 µM
- Kd [13]: 6.5 µM
- solubility kinetic [14]: 73 µg/mL (≈ 152 µM)
